Measurements published in patent US6617423B1, “Superpotent calcitonin analogs having greatly increased hypocalcemic action in vivo” (Fraunhofer-Gesellschaft zur Forderung der Angewandten …, priority 1997, dated 2003).

Test system: BALB/c mice
Assay: hypocalcemic test in vivo in BALB/c mice
Conditions: for biological activity as percentage activity of the hypocalcemic effect maximally achievable in this test: 100% = effect achieved by 2 μg of hCt, BALB/c mice
Protocol: The biological activity of the analogs was determined by means of a hypocalcemic test in vivo in BALB/c mice.
The biological activity is shown as a percentage [%] activity of the hypocalcemic effect maximally achievable in this test, as is achieved by 2 μg of hCt.

[1] = concentration of the peptides 0.01 ng/ml
[2] = concentration of the peptides 0.1 ng/ml
[3] = concentration of the peptides 1 ng/ml
[4] = concentration of the peptides 10 ng/ml
[5] = relative to hCt, mouse in-vivo test

Substance | biological activity as percentage activity of the hypocalcemic effect maximally achievable in this test [1] [%] | biological activity as percentage activity of the hypocalcemic effect maximally achievable in this test [2] [%] | biological activity as percentage activity of the hypocalcemic effect maximally achievable in this test [3] [%] | biological activity as percentage activity of the hypocalcemic effect maximally achievable in this test [4] [%] | activity above the activity of the human calcitonin [5] [fold] | times more active than the original human calcitonin [5] [times] | times more active than calcitonin from salmon (sCt) (relative to sCt, mouse in-vivo test)
calcitonin from salmon [sCt, reference compound] | 21.1 | 51.6 | 63.2 |  |  |  | 
cyclo^17,21-[Asp^17,Orn^21]-hCt [Cyclo^17,21-[Asp^17, Om^21]-hCt] | 36.8 | 68.4 | 76.3 | 86.8 | 363 | 360 | three
human calcitonin [hCt, reference compound] |  | 5.8 | 15.8 | 35.2 |  |  | 
